The values that follow are results of earlier work, collected in patent US20130281718A1, “HIGH-FLUIDITY NON-CAKING DIANHYDROHEXITOL PELLETS” (ROQUETTE FRERES, priority 2010, published 2013).

For this series the following is noted: addition of 0.005% by weight of butyl cellulose acetate; pressure of 0.23 bar after forming.

For `CC(C)(CO)CO` [neopentyl glycol], the Time without caking is 30 days.
